# Values of other authors, collected in patent US20060127456A1, “Novel fiber-based consumer products based on new concepts of fiber modification” (priority 2004, published 2006).
structure (smiles),measurement,setting,value
II [Iodine],increase of solubility,"in 1% aqueous solution of PVP, versus water",~17 fold
same,solubility in water,water,very sparingly soluble
